Experimental data taken from ChEMBL document CHEMBL1201862, “PubChem BioAssay data set” (2004).
Active and inactive are the calls of the source.

Tests used:
[1] = molecular target: T1, Oxysterols receptor LXR-beta (Homo sapiens, UniProt P55055); assay type: functional, cell-based;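 note: Cell-based luminescence dose-response assay of agonist activity at LXR, run as a confirmatory counterscreen to a daf-12 agonist screen; agonist potency from rising luciferase signal of a Gal4-LXR reporter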
T1 sequence (P55055 whole entry): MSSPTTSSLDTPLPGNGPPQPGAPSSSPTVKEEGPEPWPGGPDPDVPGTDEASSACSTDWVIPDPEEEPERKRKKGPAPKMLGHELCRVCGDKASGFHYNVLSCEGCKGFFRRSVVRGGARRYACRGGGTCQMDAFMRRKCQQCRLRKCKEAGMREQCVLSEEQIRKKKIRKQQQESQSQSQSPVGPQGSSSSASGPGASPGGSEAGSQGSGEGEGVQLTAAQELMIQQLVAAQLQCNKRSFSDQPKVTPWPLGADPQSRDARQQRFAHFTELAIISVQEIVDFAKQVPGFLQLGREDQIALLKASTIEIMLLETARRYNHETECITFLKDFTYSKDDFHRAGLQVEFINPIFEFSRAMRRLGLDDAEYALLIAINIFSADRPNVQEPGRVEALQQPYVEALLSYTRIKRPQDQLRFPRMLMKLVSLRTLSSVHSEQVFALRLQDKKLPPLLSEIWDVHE

cells [2] = experiment: cells
[3] = Luminescence-based cell-based high throughput dose response assay to identify activators of the DAF-12 from the parasite S. stercoralis (ssDAF-12).; assay type: functional
[4] = molecular target: T1, Oxysterols receptor LXR-beta; experiment: LXR agonists, Gal4 luciferase reporter, dose response, counter-screen for ssDAF-12 agonist project, cell-based, luminescence, HEK293, S. stercoralis campaign (AID 720737); assay type: functional; details: read-out: IC50 (the source's name)
[5] = NIH-3T3 fibroblast cytotoxicity, dose response, cytotoxicity control, cell-based, fluorescence, Alamar Blue, secondary assay (AID 2327); assay type: functional;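 note: NIH-3T3 mouse fibroblasts cultured with fluconazole at 8 µg/mL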
[6] = C. albicans growth with fluconazole, confirmation, fluorescence, retest (AID 2467); assay type: functional, cell-based
[7] = HepG2 cell cytotoxicity, dose response, cytotoxicity control, ATP luminescence, cherry-pick, activator set 2 (AID 1053143); assay type: functional, cell-based
[8] = inhibitors of firefly luciferase expression or activity, dose response, H4 neuroglioma cells, luminescence (AID 1990); assay type: functional, cell-based
cells [9] = assay type: functional, cell-based
[10] = Luminescence Cell-Based Dose Response HTS to Identify Inhibitors of 5'UTR Stem-Loop Driven Prion Protein mRNA Translation in H4 Neuroglioblastoma Cells. [Related pubchem assays: 1827 (Project Summary), 1813 (Primary HTS)]; assay type: functional
[11] = inhibitors of SNCA 5'UTR-driven reporter translation, confirmation, H4 neuroglioma cells, luminescence (AID 1988); assay type: functional, cell-based
[12] = inhibitors of intracellular T. cruzi replication, confirmation, NIH3T3 host cells, beta-gal luminescence (AID 2044); assay type: functional, cell-based;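 note: intracellular parasites grown in NIH/3T3 mouse fibroblasts as host cells; luminescent beta-galactosidase reporter signal from transgenic T. cruzi replicating inside host cells; inhibitors lower the luminescence signal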
cells [13] = assay type: functional, cell-based; remark: listed apart in the source
[14] = cytotoxicity toward NIH3T3 fibroblasts, dose response, counter-screen, cell-based, ATP luminescence, mouse fibroblasts (AID 2010); assay type: functional;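 note: cells exposed to compound for about 90 hours before reading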
H9c2 = experiment: cells; assay type: functional, cell-based; details: Rattus norvegicus, H9c2, Myocardium;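 note: confirmatory concentration-response retest of ultra-high-throughput screening hits for modulation of myocardial damage; cell death induced by hydrogen peroxide oxidative stress; compound pretreatment for 60 min then peroxide exposure for 2 h; potency is for protecting the cells against peroxide damage rather than for killing them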
Albumin = Albumin (Bos taurus, UniProt P02769); experiment: Counterscreen for inhibitors of T-cell receptor (TCR)-CD3 interaction: Fluorescence-based biochemical high throughput dose response assay to identify inhibitors of T-cell receptor (TCR)-CD3 interaction using a TAMRA-labeled BSA probe.; assay type: functional
Albumin, sequence (P02769 whole entry): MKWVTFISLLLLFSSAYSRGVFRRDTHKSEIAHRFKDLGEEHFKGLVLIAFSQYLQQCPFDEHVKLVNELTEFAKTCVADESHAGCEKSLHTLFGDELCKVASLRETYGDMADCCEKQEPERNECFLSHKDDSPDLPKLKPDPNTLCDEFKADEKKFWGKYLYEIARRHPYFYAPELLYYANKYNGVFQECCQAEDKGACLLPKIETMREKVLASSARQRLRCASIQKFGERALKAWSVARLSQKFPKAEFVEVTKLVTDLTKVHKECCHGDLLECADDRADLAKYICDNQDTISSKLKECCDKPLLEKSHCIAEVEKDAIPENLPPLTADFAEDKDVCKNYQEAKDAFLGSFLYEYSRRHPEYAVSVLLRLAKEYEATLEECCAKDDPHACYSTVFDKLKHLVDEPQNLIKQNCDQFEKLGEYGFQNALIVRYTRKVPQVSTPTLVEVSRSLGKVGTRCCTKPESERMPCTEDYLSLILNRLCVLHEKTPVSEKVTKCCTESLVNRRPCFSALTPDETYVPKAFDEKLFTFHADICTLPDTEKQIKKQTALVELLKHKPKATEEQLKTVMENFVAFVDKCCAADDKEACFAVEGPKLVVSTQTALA

[15] = system: Streptococcus sp. 'group A'; experiment: growth inhibition of control SK(-) GAS strain, dose response, counter-screen for streptokinase expression inhibitor project, luminescence, kanamycin, BacTiterGlo, confirmation (AID 1900); assay type: functional, organism-based
Streptokinase A = molecular target: T2, Streptokinase A (Streptococcus pyogenes serotype M1, UniProt P10520); experiment: S. pyogenes streptokinase expression inhibitors, potency, dose response, plasminogen activation absorbance, OD405 (AID 1914); assay type: functional, Streptococcus pyogenes M1 GAS;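 note: secreted streptokinase activity via plasminogen activation per viability signal from cell pellet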
T2 sequence (P10520 whole entry): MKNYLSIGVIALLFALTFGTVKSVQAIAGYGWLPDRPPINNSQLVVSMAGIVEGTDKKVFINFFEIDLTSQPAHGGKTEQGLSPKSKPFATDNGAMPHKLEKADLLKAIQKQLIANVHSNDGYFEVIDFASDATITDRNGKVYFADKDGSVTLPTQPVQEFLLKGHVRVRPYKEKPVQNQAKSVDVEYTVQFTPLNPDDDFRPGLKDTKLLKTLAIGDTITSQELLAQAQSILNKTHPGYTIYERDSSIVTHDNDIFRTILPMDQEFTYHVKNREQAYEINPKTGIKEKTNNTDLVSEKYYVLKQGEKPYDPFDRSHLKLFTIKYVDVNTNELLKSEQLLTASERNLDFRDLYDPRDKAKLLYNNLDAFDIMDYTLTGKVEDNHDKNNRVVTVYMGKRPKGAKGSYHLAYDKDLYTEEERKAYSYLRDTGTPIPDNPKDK

[16] = M. tuberculosis H37Rv growth inhibitors, H37Rv strain (AID 1626); assay type: functional
Streptococcus = experiment: Group A Streptococcus viability loss, dose response, counter-screen for streptokinase expression inhibitor project, luminescence, BacTiterGlo (AID 1915); assay type: functional, organism-based;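 note: potency for reduction of bacterial viability or growth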
[17] = molecular target: T3, Methionyl-tRNA synthetase, putative (Trypanosoma brucei brucei, UniProt Q38C91); assay type: functional, Trypanosoma brucei brucei strain 927/4 GUTat10.1
T3 sequence (Q38C91 whole entry): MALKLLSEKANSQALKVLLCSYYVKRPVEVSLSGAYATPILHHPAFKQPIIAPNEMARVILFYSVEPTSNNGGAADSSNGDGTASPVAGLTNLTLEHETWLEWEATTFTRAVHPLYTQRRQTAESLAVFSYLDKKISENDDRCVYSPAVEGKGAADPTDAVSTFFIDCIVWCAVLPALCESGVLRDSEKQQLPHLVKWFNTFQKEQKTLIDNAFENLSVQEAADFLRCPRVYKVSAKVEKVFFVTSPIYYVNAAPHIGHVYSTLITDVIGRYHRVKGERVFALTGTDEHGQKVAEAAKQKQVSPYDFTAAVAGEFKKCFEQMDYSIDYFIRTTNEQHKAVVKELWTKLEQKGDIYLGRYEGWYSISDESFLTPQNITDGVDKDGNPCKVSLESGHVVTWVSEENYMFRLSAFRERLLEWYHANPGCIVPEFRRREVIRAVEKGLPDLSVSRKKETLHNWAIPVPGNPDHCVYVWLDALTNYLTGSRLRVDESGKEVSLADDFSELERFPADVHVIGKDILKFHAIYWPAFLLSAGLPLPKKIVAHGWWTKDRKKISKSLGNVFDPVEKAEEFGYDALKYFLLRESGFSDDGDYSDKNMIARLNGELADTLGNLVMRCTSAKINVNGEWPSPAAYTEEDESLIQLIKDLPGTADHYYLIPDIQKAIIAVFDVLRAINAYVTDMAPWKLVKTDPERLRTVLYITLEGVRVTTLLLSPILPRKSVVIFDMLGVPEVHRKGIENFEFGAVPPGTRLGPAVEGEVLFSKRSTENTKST

[18] = Counterscreen for inhibitors of Trypanosoma brucei methionyl tRNA synthetase (MetRS): Luminescence-based cell-based high throughput dose response assay to identify compounds that are cytotoxic to Jurkat human T lymphocyte cells.; assay type: functional
[19] = molecular target: T3, Methionyl-tRNA synthetase, putative; assay type: functional, Trypanosoma brucei brucei strain 927/4 GUTat10.1; remark: listed apart in the source
[20] = A549 cell cytotoxicity, dose response, cytotoxicity control, plate reader, cherry-pick, antagonist series (AID 743412); assay type: functional, cell-based
[21] = HepG2 cell cytotoxicity, dose response, cytotoxicity control, plate reader, cherry-pick, antagonist series (AID 743416); assay type: functional, cell-based
[22] = LGR2 antagonists, dose response, cell-based, HEK293, CRE-luciferase reporter, cherry pick, set 2 (AID 743343); assay type: functional;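 note: transfected cells were stimulated with diluted bursicon conditioned medium after compound addition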
[23] = MC4R antagonists, dose response, counter-screen for LGR2 antagonist project, cell-based, plate reader, cherry pick (AID 743444); assay type: functional;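 note: transfected HEK 293 cells stimulated with alpha-MSH peptide; potency of inhibitors of the alpha-MSH evoked signal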
[24] = HEK293 cell cytotoxicity, dose response, cytotoxicity control, plate reader, cherry-picked samples (AID 743446); assay type: functional, cell-based
[25] = growth suppression of PTEN-null colon cells, dose response, cell-based, HCT116 PTEN knockout (AID 1047); assay type: functional;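 note: HCT116 colon tumor cells with PTEN knocked out; cells exposed to compound for 60 hours before readout; potency for loss of cell viability measured by luminescence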
[26] = growth suppression of beta-catenin-knockout colon cells, dose response, cell-based, HCT116, human colon tumor (AID 1045); assay type: functional;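 note: HCT116 colon tumor cells with beta catenin knocked out; cells exposed to compound for 60 hours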

Cc1sc(NC(=O)c2ccc(Cl)s2)c(C(N)=O)c1C
EC50 [1]: > 67.5 µM (inactive)
EC50 (cells [2]): > 67.5 µM (inactive)

Cn1cnc(NCc2ccccc2)c1[N+](=O)[O-]
IC50 [3]: > 67.5 µM (inactive)
EC50 [4]: > 67.5 µM (inactive)

Cc1cccc(NC(S)=NNC(=O)c2cc3c(s2)CCC(C)C3)c1C (stereo unspecified)
EC50 [5]: > 150 µM (inactive)
EC50 [6]: > 38 µM (not active)
IC50 [3]: > 67.5 µM (inactive)
EC50 [4]: > 67.5 µM (inactive)

Cc1cc(C)cc(NC(=O)Nc2ccc(N3CCCCC3)cc2)c1
AC50 [7]: 26 µM (active)

COc1cc2ccccc2cc1C(=O)NNC(=O)c1ccccc1O
EC50 [5]: > 150 µM (inactive)
EC50 [8]: > 60 µM (not active)
EC50 (cells [9]): > 350 µM (not active)
EC50 [10]: 14.9 µM (active)
EC50 [11]: 16.1 µM (active)
EC50 [6]: > 38 µM (not active)
EC50 [12]: > 60 µM (not active)
EC50 (cells [13]): > 350 µM (not active)
EC50 [14]: > 60 µM (not active)
IC50 (H9c2): > 79 µM (inactive)
IC50 (Albumin): > 94.2 µM (inactive)

COc1ccc(-c2nnc(SC(C(=O)c3c[nH]c4ccccc34)c3ccccc3)n2N)cc1OC (stereo unspecified)
EC50 [15]: 8.65 µM (active)
EC50 (Streptokinase A): > 150 µM (not active)
IC50 [16]: > 100 µM (active)
EC50 (Streptococcus): 102 µM (active)
IC50 [17]: 33.8 µM (inactive)
IC50 [18]: 83.3 µM (inactive)
IC50 [19]: 99 µM (inactive)

Cc1cccc(-c2noc(-c3ccc4c(c3)OCO4)n2)c1
AC50 [20]: > 52 µM (inactive)
AC50 [21]: > 52 µM (inactive)
AC50 [22]: 9.54 µM (active)
AC50 [23]: 12.1 µM (active)
AC50 [24]: > 52 µM (inactive)

Cc1ccc2nc(-c3ccc(NC(=O)COC(=O)c4ccc(Br)o4)cc3)sc2c1
EC50 [25]: 37.3 µM (active)
EC50 [26]: 79.7 µM (active)
IC50 [3]: > 67.5 µM (inactive)
EC50 [4]: > 67.5 µM (inactive)
